A short description of this data set: in vitro. Conditions: human, hela cells, % viability.

In the case of `Cc1ccccc1CC(=O)NCC(c1ccccc1Cl)N1CCOCC1` (centres unmarked) [CBK304564], the viability (usually a read-out of living cells in per cent, often relative to untreated cells) at 28.5 h, 10 µM turned out to be 85.3%.

Consider `Nc1ccc(/C=C/c2cccc(C(=O)O)n2)cc1` [CBK267711], for which the viability at 28.5 h, 10 µM was determined as 89.7%. The same measure, in the same setting: the value for `O=C(O)CSc1nnc(-c2ccc(F)cc2)o1` [CBK068115] was 104%. `c1cnc(N2CCCC2)c(OC2CCOC2)n1` (centres unmarked) [CBK115891]: the viability at 28.5 h, 10 µM is 91.2%. Still for that read-out and setting: the result for `COCC(=O)N1CCN2C(=O)[C@@H]3C[C@@H](OCc4ccc(F)cc4)CN3C(=O)[C@@H]2C1` [CBK289605] reads 99.1%; that for `O=C(Nc1nnc(C2=COCCO2)o1)c1ccc(-c2ccccc2)cc1` [CBK287407], 84.5%; that for `Cc1nc(CCNC(=O)N(Cc2cnn(C)c2)C2CC2)nc2c1CCC2` [CBK307650], 86.1%. On the same count and under the same terms, the result for `COc1ccc(OCCN(C)c2cnn(-c3ccc(C(=O)O)cc3)c(=O)c2Cl)cc1` [CBK296627] reads 104%; that for `CN(C)C(=O)c1sc2ccccc2c1Cl` [CBK067817], 82.4%; that for `CCN(CCO)c1ccc(Nc2cc(-c3cc4ccccc4o3)ncn2)cc1` [CBK090999], 94.8%. Turning to `CC1CCN(S(=O)(=O)c2ccc(C(=O)O)cc2)CC1` [CBK287195], the viability at 28.5 h, 10 µM was 82.7%. Take `COCCCn1c(N)c(C(=O)NCC(C)C)c2nc3ccccc3nc21` [CBK126495]: the viability at 28.5 h, 10 µM amounted to 84.9%. The same measure, in the same setting: the value for `Cn1cc(C2C[S+]([O-])CCN2Cc2csc3ccccc23)cn1` (centres unmarked) [CBK304085] was 103%.

Consider `O=C(CSc1ncc(C(=O)O)n1-c1ccc(F)cc1)NCCc1ccc(F)cc1` [CBK297513], for which the viability at 28.5 h, 10 µM is 93.3%. `Cc1nn(C)cc1CN1CCCC1c1nc(N(C)C)ncc1-c1cccc(Cl)c1` (centres unmarked) [CBK286501]: the viability at 28.5 h, 10 µM stood at 86%. As for `CC(C)(C)OC(=O)N1CCC2(CC1)OCc1cc(-c3cccc(OCC(=O)N4CCOCC4)c3)ccc1O2` [CBK105254], the viability at 28.5 h, 10 µM (bulk resorufin, single well) came out at 96.8%. For the molecule `O=C(NCc1cccnc1)c1ccccc1NS(=O)(=O)c1ccc(F)cc1` [CBK269754], the viability at 28.5 h, 10 µM was determined as 70.8%. The same measure, in the same setting: the result for `O=c1[nH]cnc2c1ncn2[C@H]1C[C@@H](O)[C@@H](CO)O1` [CBK201225] reads 99.5%; that for `CC(=O)c1ccc(NC(=O)O[C@@H]2CO[C@H]3[C@@H]2OC[C@@H]3NC(=O)C2CCC2)cc1` [CBK289475], 89.3%. On the same count and under the same terms, the result for `COc1cc(C(O)c2cc3c(cc2CO)OCO3)cc(OC)c1OC` (centres unmarked) [CBK200098] reads 100%; that for `O=C(NCCCn1ccnc1)c1cc(-c2ccccc2Cl)nc2ccccc12` [CBK262656], 95.2%; that for `CCN(CC)C(=O)C1CCCN(C(=O)NCCc2ccc(OC)c(OC)c2)C1` (centres unmarked) [CBK156134], 97.7%. On the same count and under the same terms, the result for `Cc1c(C(=O)O)sc(S(=O)(=O)N2CCN(C(=O)CC3CCCC3)CC2)c1C(=O)O` [CBK297122] reads 101%; that for `O=c1[nH]c2cccc(O)c2o1` [CBK048613], 90.9%; that for `O=c1n(Cc2ccccn2)c2cccnc2n1Cc1cccs1` [CBK283867], 90.2%. `COc1ccc2[nH]c(NCCCO)nc2c1` [CBK264155]: the viability at 28.5 h, 10 µM was determined as 91.2%. `O=C1NC(=O)N(c2ccc(Cl)cc2)C(=O)/C1=C\NC(CO)(CO)CO` [CBK264421]: the viability at 28.5 h, 10 µM (bulk resorufin, single well) was 99.7%. `C=C(C)Cn1c(SC(C)C)nnc1-c1ccccc1OC` [CBK200072]: the viability at 28.5 h, 10 µM amounted to 97.1%. Regarding `O=C1CC(C(=O)Nc2ccccc2)n2cnnc2N1` (centres unmarked) [CBK287980], the viability at 28.5 h, 10 µM was found to be 112%. Same read-out and setting: the result for `COC(=O)c1ccc(OCCn2nc(C)c(C)c(C#N)c2=O)cc1` [CBK305676] reads 69.5%.

As to `O=c1c2ccccc2c(-c2ccc(Cl)cc2)nn1-c1cc(N2CCNCC2)ccc1[N+](=O)[O-]` [CBK265763], the viability at 28.5 h, 10 µM was 98.7%.

As for `Cc1ccc(CNc2c(-c3ccco3)nc3cnccn23)cc1` [CBK283693], the viability at 28.5 h, 10 µM is 89.3%.

Consider `Cc1ccc(NC(=O)Cn2cnc3c2c(=O)n(C)c(=O)n3C)nc1` [CBK133463], for which the viability at 28.5 h, 10 µM is 95.9%. With `Cc1ccc2c(C)nc(Nc3nc(CSc4nnc(C)s4)cc(=O)[nH]3)nc2c1` [CBK269027], the viability at 28.5 h, 10 µM was determined as 87.1%. The same measure, in the same setting: the result for `COc1ccc(NC(=O)CCCSc2nc(N)c3c(C)c(C)sc3n2)cc1` [CBK266547] reads 105%; that for `O=C1N(Cc2cccc3ccccc23)c2ccccc2C1(c1ccc(O)cc1)c1ccc(O)cc1` [CBK261410], 88.4%. For the molecule `CCOC(=O)CN1CCN(c2nccnc2Oc2ccc(OC)c(OC)c2)CC1` [CBK083052T], the viability at 28.5 h, 10 µM came out at 103%.

As to `CS(=O)(=O)N(CC(=O)Nc1ccc(S(N)(=O)=O)cc1)Cc1ccc(Cl)cc1` [CBK267512], the viability at 28.5 h, 10 µM was 98.8%. The same measure, in the same setting: the value for `CSc1nsc(SCC(=O)c2ccc(NC(C)=O)cc2)n1` [CBK268755] was 82.3%; that for `CN1C(c2ccccc2)=NO[C@]1(C)c1ccccc1` [CBK027170] was 90%; that for `COc1ncc(-c2cncc(N3CCN(c4ccccc4C#N)CC3)n2)c(OC)n1` [CBK037872] was 105%. With `S=C(Nc1ccc2nc3c4ccccc4c4ccccc4c3nc2c1)N1CCOCC1` [CBK263153], the viability at 28.5 h, 10 µM (bulk resorufin, single well) came to 94.7%. Turning to `CC(CCc1ccc(F)cc1)NC(=O)c1cc2c([nH]c1=O)CCC2` (centres unmarked) [CBK281512], the viability at 28.5 h, 10 µM came to 91.9%. For `CC(NC(=O)CCn1c(C(F)F)cc2cccnc21)c1ccncc1` (centres unmarked) [CBK285069], the viability at 28.5 h, 10 µM stood at 91.6%.

Consider `CC(C)(C)OC(=O)N1CCC(C(=O)NC[C@H](CC(=O)O)c2ccc(Cl)cc2)CC1` [CBK286691], for which the viability at 28.5 h, 10 µM stood at 98%.

On to `COc1ncc(-c2nccnc2N2CCN(C)CC2)c(OC)n1` [CBK036595], for which the viability at 28.5 h, 10 µM came to 98.7%. For `CCN(CC)CCC(=O)N1CC2(CCN(C(=O)OCc3ccccc3)CC2)c2ccccc21` [CBK122479], the viability at 28.5 h, 10 µM is 106%. The same measure, in the same setting: the value for `CCCOc1nccnc1N1CCNCC1` [CBK001839G] was 82.4%; that for `O=C1N=C(NCc2ccccc2F)OC12CCN(Cc1ccccc1)CC2` [CBK115688] was 96.2%. On the same count and under the same terms, the value for `COc1ccc([N+](=O)[O-])cc1COc1ccc2ccc(=O)oc2c1` [CBK264597] was 106%; that for `O=C(c1cc(S(=O)(=O)N2CCOCC2)ccc1Cl)N1CCCCC1CO` (centres unmarked) [CBK304579] was 88.6%. Still for that read-out and setting: the result for `CCCCN1CCCC1c1c[nH]c2ccccc12` (centres unmarked) [CBK023773G] reads 93%.

As for `COc1ccccc1N1CCN(C(=O)C2CC2C)CC1` (centres unmarked) [CBK091496], the viability at 28.5 h, 10 µM came to 108%. Same read-out and setting: the result for `O=C(NC(=S)Nc1ccc2[nH]c(=O)[nH]c2c1)c1ccc(F)cc1` [CBK263986] reads 89.3%. For `O=c1c(N2CCN(CCOc3ccccc3)CC2)nccn1CCOc1cc(F)c(F)cc1F` [CBK045934C], the viability at 28.5 h, 10 µM turned out to be 103%. As for `Cc1ccc(-c2csc3c(=O)[nH]c(N4CCCC(C(=O)NCC(N)=O)C4)nc23)cc1` (centres unmarked) [CBK215542], the viability at 28.5 h, 10 µM was 98.3%. Consider `O=c1nc2c(cn1[C@H]1C[C@@H](O)[C@@H](CO)O1)Sc1ccccc1N2` [CBK201237], for which the viability at 28.5 h, 10 µM was 100%. Same read-out and setting: the value for `O=C(O)c1csc(S(=O)(=O)Nc2ccc(Br)cc2Cl)c1` [CBK297731] was 101%. The same measure, in the same setting: the value for `CC(C)(C)OC(=O)NC1CCC(NCc2c[nH]c(-c3ccccc3)n2)CC1` (centres unmarked) [CBK056692] was 80.9%. Same read-out and setting: the result for `CN(CC(=O)Nn1cnnc1)S(=O)(=O)c1ccc(Br)cc1` [CBK268597] reads 85.9%. Take `Fc1ccc(-c2cn3ccnc3c(NC3CC3)n2)cc1F` [CBK066692]: the viability at 28.5 h, 10 µM came out at 101%.

`COc1ccc(C2(CNC(=O)C(O)COc3ccccc3)CCCC2)cc1OC` (centres unmarked) [CBK014053]: the viability at 28.5 h, 10 µM came to 88.5%. Still for that read-out and setting: the value for `Cc1cc2[nH]cc(C(=O)N3CCCC3c3ccco3)c(=O)n2n1` (centres unmarked) [CBK307390] was 82.9%; that for `Nc1ccc(-c2cn3ccnc3c(NCc3cccs3)n2)cc1` [CBK066564] was 95.5%. Same read-out and setting: the value for `CC(NC(=O)C1CCN(Cc2nccs2)CC1)c1ccc(F)cc1` (centres unmarked) [CBK148056] was 102%; that for `CCOCCCNC(=O)/C(=C/c1cccnc1)NC(=O)c1ccccc1` [CBK126866] was 90.8%; that for `Cn1nnnc1SCC(=O)Nc1cccc2nsnc12` [CBK268973] was 101%. On the same count and under the same terms, the value for `O=C(O)c1sc2c(ccc3ccccc32)c1Br` [CBK018387] was 90.4%. On to `CC(=O)N1CCN(Cc2c(C3CCCC3)[nH]c3ncccc23)CC1` [CBK285339], for which the viability at 28.5 h, 10 µM was determined as 80%.

Regarding `C[N+](C)(C)CCCCOC(c1ccccc1)c1ccccc1` [CBK261076I], the viability at 28.5 h, 10 µM is 94.1%. On the same count and under the same terms, the value for `Oc1ccc(NCc2ccc(OCc3cccs3)cc2)cc1` [CBK266586] was 89%; that for `O=C1CC(c2cccnc2)c2sc(N3CCOCC3)nc2N1` (centres unmarked) [CBK287927] was 105%; that for `O=S(=O)(Nc1cc(NC2CCNC2)c2occc2c1)c1ccccc1` (centres unmarked) [CBK066943C] was 104%. Still for that read-out and setting: the value for `COc1ccc(C(C)C)cc1-c1cnc2cccnc2c1N` [CBK081211] was 105%. In the case of `CCOC(=O)c1[nH]c2c([N+](=O)[O-])cccc2c1O` [CBK115315], the viability at 28.5 h, 10 µM was found to be 88.1%.

Turning to `O=C(Nc1nc2ccccc2[nH]1)NC1CCCCC1` [CBK288210], the viability at 28.5 h, 10 µM is 86.1%. On the same count and under the same terms, the value for `Cc1ccc(-n2nc(C(=O)O)c(C)c(C#N)c2=O)cc1C` [CBK286987] was 93.3%; that for `Cc1noc(C)c1NC(=O)c1cnc2ccccc2n1` [CBK200220] was 98.1%; that for `CC(C)NC1=NC(=O)C(CC(=O)Nc2ccccc2)S1` (centres unmarked) [CBK013880] was 90.7%. Still for that read-out and setting: the value for `O=C(N/N=C\c1cccs1)c1n[nH]c2c1CCCC2` [CBK261667] was 110%.

The values above are taken from article PMC12040169 (PLOS Biology, 2025).
